According to article PMC3411462, “Long-acting κ opioid antagonists nor-BNI, GNTI and JDTic: pharmacokinetics in mice and lipophilicity” (BMC Pharmacology, 2012):
Several values for one entry are separate records, joined by “and”; a condition that tells them apart may be missing. Identical values can stand only once. Like-named read-outs stand apart in the source and are kept apart here. Marks after values point to notes of the source that are not given here.

Test: Brain and plasma concentrations in mice after intraperitoneal administration (LC-MS-MS), non-compartmental analysis
Assay type: in vivo
Details: for [drug],brain (free base equivalent) / [drug],plasma (free base equivalent): listed as JDTic.2HCl.H2O
Description: Doses are reported by weight of the specified salt. […] Body mass was measured to ±0.1 g.
Mice were sacrificed by cervical dislocation, then decapitated for collection of brain and blood samples. Trunk blood was collected in 1.5 mL polypropylene micro-centrifuge tubes, shaken with a few crystals of EDTA and cooled in ice-water. Samples were centrifuged at 14,000 rpm (revolutions per minute) for 15 minutes at 3 °C, then stored in glass sample vials at −20 °C until analysis. Brains were removed and immersed for 30 seconds in 2-methylbutane over dry ice, then stored in polypropylene tubes at −20 °C until sample preparation. Sample tubes were thawed in ice-water, distilled water was added (2:1 by weight) and the brain homogenized with a probe sonicator for 3 minutes over ice-water (Fisher Sonic Dismembrator 300 at 35% power). The probe was rinsed with ethanol and distilled water between samples. Brain homogenate was stored in glass sample vials at −20 °C until analysis by LC-MS-MS.
Drug concentrations (ng mL^-1) refer to the free base, and were measured by liquid chromatography-tandem mass spectrometry (LC-MS-MS) as described previously. Briefly, samples were shaken with 3 volumes of methanol and centrifuged at 3000 g. Aliquots of the supernatants were diluted with 5 volumes of water containing an appropriate internal standard. Extracts from in vitro and in vivo experiments were analyzed by multiple reaction monitoring on an API3000 or API4000 LC-MS-MS system with electrospray ion source, controlled and analyzed using the Analyst software package (Applied Biosystems, Foster City, CA). Chromatography was conducted on a Sprite Armor C18 analytical column (20 × 2.1 mm, 10 μm particle size, Analytical Sales and Products, Pompton Plains, NJ) with a 0.5 μm PEEK guard filter. Compounds were eluted with a gradient from 2% to 95% acetonitrile in water, both containing 0.1% formic acid. Compounds were detected in positive ion mode, tuned to the mass transition with the largest intensity. Analyte concentrations were determined by comparison of analyte:internal standard peak area ratios to those of standards prepared in the appropriate matrices.
For calculation of mean concentrations, the earliest values below the MRC were substituted by MRC ÷ 2, as recommended elswhere. Pharmacokinetic parameters were calculated from mean concentrations using PKSolver, employing non-compartmental analysis for extravascular administration. Curves in figures were fitted using Origin 8.5 (OriginLab, Northampton, MA) using 2-compartment models. Confidence intervals and two-tailed p values (unpaired t test) were calculated using Graphpad Quickcalcs. One outlier was identified using Grubbs' test (p < 0.01) and excluded from the analysis; see Additional file 1.

[1] = 0.5 h, 10 mg/kg i.p., individual mice, 10 mg/kg
[2] = 1 h, 10 mg/kg i.p., individual mice, 10 mg/kg
[3] = 2 h, 10 mg/kg i.p., individual mice, 10 mg/kg
[4] = 4 h, 10 mg/kg i.p., individual mice, 10 mg/kg
[5] = 24 h, 10 mg/kg i.p., individual mice, 10 mg/kg

Structure (SMILES): CC(C)[C@@H](CN1CC[C@@](C)(c2cccc(O)c2)[C@@H](C)C1)NC(=O)[C@H]1Cc2ccc(O)cc2CN1 [JDTic, (3R)-7-Hydroxy-N-((1S)-1-{[(3R,4R)-4-(3-hydroxyphenyl)-3,4-dimethyl-1-piperidinyl]methyl}-2-methylpropyl)-1,2,3,4-tetrahydro-3-isoquinolinecarboxamide]
- Time of maximal mean plasma level (10 mg kg^-1 i.p., mice): approximately 30 minutes
- [drug],brain (free base equivalent) [1]: 66.3 ng/g and 60.3 ng/g and 155 ng/g and 37.5 ng/g and 49.5 ng/g and 57.9 ng/g
- [drug],plasma (free base equivalent) [1]: 263 ng/mL and 237 ng/mL and 330 ng/mL and 248 ng/mL and 145 ng/mL
- [drug],brain (free base equivalent) [2]: 61.5 ng/g and 45.3 ng/g and 38.1 ng/g and 116 ng/g and 49.2 ng/g and 56.7 ng/g
- [drug],plasma (free base equivalent) [2]: 152 ng/mL and 270 ng/mL and 114 ng/mL and 126 ng/mL and 130 ng/mL and 134 ng/mL
- [drug],brain (free base equivalent) [3]: 48.3 ng/g and 36.9 ng/g
- [drug],plasma (free base equivalent) [3]: 57.3 ng/mL and 71 ng/mL
- [drug],brain (free base equivalent) [4]: 80.4 ng/g and 46.2 ng/g
- [drug],plasma (free base equivalent) [4]: 69.6 ng/mL and 40.3 ng/mL and 30 ng/mL
- [drug],brain (free base equivalent) [5]: 30.3 ng/g and 32.1 ng/g
- [drug],plasma (free base equivalent) [5]: <4 ng/mL
- [drug],brain (free base equivalent) (48 h, 10 mg/kg i.p., individual mice, 10 mg/kg): 936* ng/g and 32.7 ng/g and 16.7 ng/g
- [drug],brain (free base equivalent) (168 h, 10 mg/kg i.p., individual mice, 10 mg/kg): <12 ng/g (2×) and 43.8 ng/g
- Peak unbound brain level (at 30 minutes, 10 mg kg^-1 i.p., estimate): up to 4 nM
- AUMC 0-inf_obs (brain NCA, 10 mg/kg i.p.): 3158084 ng/ml*h^2
- Tlag (brain NCA, 10 mg/kg i.p.): 0 h
- C max,brain (brain, 10 mg kg^-1 i.p., mice): 71 ng/mL
- Decline of mean plasma concentration from peak (by 24 hours, 10 mg kg^-1 i.p.): at least 98%
- concentration at 4 h (male, Swiss-Webster (Crl:CFW(SW)), mouse, brain, intraperitoneal, 10 mg/kg, 4 h, 10 mg/kg, read-out: Conc (brain, NCA input)): 62.4 ng/mL
- concentration at 24 h (male, Swiss-Webster (Crl:CFW(SW)), mouse, brain, intraperitoneal, 10 mg/kg, 24 h, 10 mg/kg, read-out: Conc (brain, NCA input)): 30.9 ng/mL
- concentration at 48 h (male, Swiss-Webster (Crl:CFW(SW)), mouse, brain, intraperitoneal, 10 mg/kg, 48 h, 10 mg/kg, read-out: Conc (brain, NCA input)): 24.7 ng/mL
- concentration at 168 h (male, Swiss-Webster (Crl:CFW(SW)), mouse, brain, intraperitoneal, 10 mg/kg, 168 h, 10 mg/kg, read-out: Conc (brain, NCA input)): 18.6 ng/mL
- concentration at 4 h (male, Swiss-Webster (Crl:CFW(SW)), mouse, brain, ip, 10 mg/kg, 4 h, 10 mg/kg i.p., individual mice, read-out: [drug],brain (free base equivalent)): 60.6 ng/g
- concentration at 4 h (male, Swiss-Webster (Crl:CFW(SW)), mouse, brain, ip, 10 mg/kg, 4 h, 10 mg/kg i.p., read-out: mean (brain)): 62.4 ng/g
- concentration at 24 h (male, Swiss-Webster (Crl:CFW(SW)), mouse, brain, ip, 10 mg/kg, 24 h, 10 mg/kg i.p., individual mice, read-out: [drug],brain (free base equivalent)): 30.3 ng/g
- concentration at 24 h (male, Swiss-Webster (Crl:CFW(SW)), mouse, brain, ip, 10 mg/kg, 24 h, 10 mg/kg i.p., read-out: mean (brain)): 30.9 ng/g
- concentration at 48 h (male, Swiss-Webster (Crl:CFW(SW)), mouse, brain, ip, 10 mg/kg, 48 h, 10 mg/kg i.p., outlier excluded, read-out: mean (brain)): 24.7 ng/g
- concentration at 168 h (male, Swiss-Webster (Crl:CFW(SW)), mouse, brain, ip, 10 mg/kg, 168 h, 10 mg/kg i.p., <MRC substituted by MRC/2, read-out: mean (brain)): 18.6 ng/g
- AUC(0-inf) (male, Swiss-Webster (Crl:CFW(SW)), mouse, brain, ip, 10 mg/kg, brain NCA, 10 mg/kg i.p., read-out: AUC 0-inf_obs): 10300 ng·h/mL
- Kp uu (male, Swiss-Webster (Crl:CFW(SW)), mouse, brain/plasma (unbound), ip, supplement, 10 mg/kg i.p., read-out: Kp,uu,brain (AUC0–∞,brain,u / AUC0–∞,p,u)): < 1.42
- Kp (male, Swiss-Webster (Crl:CFW(SW)), mouse, brain/plasma, ip, 10 mg/kg, supplement, 10 mg/kg i.p., read-out: Kp,brain (AUC0–∞,brain / AUC0–∞,p)): 11.6
- MRT inf (male, Swiss-Webster (Crl:CFW(SW)), mouse, ip, brain NCA, 10 mg/kg i.p., read-out: MRT 0-inf_obs): 307 h
- Kp uu (male, Swiss-Webster, mouse, brain and plasma (unbound), ip, 10 mg kg^-1, 10 mg kg^-1 i.p., mice, read-out: K p,uu,brain (AUC0–∞,brain,u/AUC0–∞,p,u)): ≤ 1.4
- Kp uu (male, Swiss-Webster, mouse, brain and plasma (unbound), ip, 10 mg/kg, 10 mg kg^-1 i.p., mice, read-out: Cmax,brain,u/Cmax,p,u): < 0.04
- Kp (male, Swiss-Webster, mouse, brain and plasma, ip, 10 mg kg^-1, 10 mg kg^-1 i.p., mice, read-out: K p,brain (AUC0–∞,brain/AUC0–∞,p)): 11.6
- Kp (male, Swiss-Webster, mouse, brain and plasma, ip, 10 mg/kg, 10 mg kg^-1 i.p., mice, read-out: Cmax,brain/Cmax,p): 0.29
- concentration at 0.5 h (male, Swiss-Webster, mouse, brain, intraperitoneal, 10 mg/kg, 0.5 h, 10 mg/kg, read-out: Conc (brain, NCA input)): 71.1 ng/mL
- concentration at 1 h (male, Swiss-Webster, mouse, brain, intraperitoneal, 10 mg/kg, 1 h, 10 mg/kg, read-out: Conc (brain, NCA input)): 61.1 ng/mL
- concentration at 2 h (male, Swiss-Webster, mouse, brain, intraperitoneal, 10 mg/kg, 2 h, 10 mg/kg, read-out: Conc (brain, NCA input)): 38.4 ng/mL
- half-life (male, Swiss-Webster, mouse, brain, ip, 10 mg/kg, 10 mg kg^-1 i.p., mice, read-out: Terminal half-life in brain (converted)): ~216 h
- concentration at 0.5 h (male, Swiss-Webster, mouse, brain, ip, 10 mg/kg, 0.5 h, 10 mg/kg i.p., read-out: mean (brain)): 71.1 ng/g
- concentration at 1 h (male, Swiss-Webster, mouse, brain, ip, 10 mg/kg, 1 h, 10 mg/kg i.p., read-out: mean (brain)): 61.1 ng/g
- concentration at 2 h (male, Swiss-Webster, mouse, brain, ip, 10 mg/kg, 2 h, 10 mg/kg i.p., individual mice, read-out: [drug],brain (free base equivalent)): 30 ng/g
- concentration at 2 h (male, Swiss-Webster, mouse, brain, ip, 10 mg/kg, 2 h, 10 mg/kg i.p., <MRC substituted by MRC/2, read-out: mean (brain)): 38.4 ng/g
- half-life (male, Swiss-Webster, mouse, brain, ip, 10 mg/kg, brain NCA, 10 mg/kg i.p., read-out: t1/2 (converted)): 220 h
